The supplement of paper PMC10307832

Legend:
Assay in all cases: relative viability (nuclei count vs DMSO), 5 days (fraction); higher = more cells survive
Carboplatin + Bortezomib = compound: C1CC(C1)(C(=O)O)C(=O)O.[NH2-].[NH2-].[Pt+2] [Carboplatin] + CC(C)C[C@H](NC(=O)[C@H](Cc1ccccc1)NC(=O)c1cnccn1)B(O)O [Bortezomib] (partner 0.002 µM)
Method in brief: (§1)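 A single step with final 0.05% Triton X-100, 1% formaldehyde and 1 ug/ml Hoechst fixed the cells and stained nuclei 5 days after treatment. Lung cancer cell lines in 1536-well plates had been treated by pin tool the day after seeding with one drug alone or a fixed anchor-drug dose plus five library-drug doses (not always all listed) in √10 steps, and nuclei were counted on 4× images. Relative viability is the ratio of nuclei in treated wells to nuclei in vehicle wells, taken as the median of duplicate plates.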

Carboplatin + Crizotinib = compound: C1CC(C1)(C(=O)O)C(=O)O.[NH2-].[NH2-].[Pt+2] [Carboplatin] + C[C@@H](Oc1cc(-c2cnn(C3CCNCC3)c2)cnc1N)c1c(Cl)ccc(F)c1Cl [Crizotinib] (partner 1 µM)
Method in brief: as §1

MLN4924 + Navitoclax = compound: NS(=O)(=O)OC[C@@H]1C[C@@H](n2ccc3c(N[C@H]4CCc5ccccc54)ncnc32)C[C@@H]1O [MLN4924] + CC1(C)CCC(c2ccc(Cl)cc2)=C(CN2CCN(c3ccc(C(=O)NS(=O)(=O)c4ccc(N[C@H](CCN5CCOCC5)CSc5ccccc5)c(S(=O)(=O)C(F)(F)F)c4)cc3)CC2)C1 [Navitoclax] (partner 0.5 µM)
Method in brief: as §1

MLN4924 + Phenformin = compound: NS(=O)(=O)OC[C@@H]1C[C@@H](n2ccc3c(N[C@H]4CCc5ccccc54)ncnc32)C[C@@H]1O [MLN4924] + N=C(N)NC(=N)NCCc1ccccc1 [Phenformin] (partner 250 µM)
Method in brief: as §1

Work on UMC-11 yielded a relative viability (Carboplatin + Bortezomib; first compound 0.08 µM) of 0.941, a relative viability (Carboplatin + Bortezomib; first compound 0.253 µM) of 0.904 and a relative viability (Carboplatin + Bortezomib; first compound 0.8 µM) of 0.675. For the same cell line, the relative viability (Carboplatin + Bortezomib; first compound 2.53 µM) was 0.622, the relative viability (Carboplatin + Bortezomib; first compound 8 µM) was 0.382 and the relative viability (Carboplatin + Crizotinib; first compound 0.08 µM) was 0.721. The relative viability (Carboplatin + Crizotinib; first compound 0.253 µM) was 0.652, the relative viability (Carboplatin + Crizotinib; first compound 0.8 µM) was 0.515 and the relative viability (Carboplatin + Crizotinib; first compound 2.53 µM) was 0.484. It also gave a relative viability (Carboplatin + Crizotinib; first compound 8 µM) of 0.301, a relative viability (MLN4924 + Navitoclax; first compound 0.04 µM) of 0.198 and a relative viability (MLN4924 + Navitoclax; first compound 0.1265 µM) of 0.142. For the same cell line, the relative viability (MLN4924 + Navitoclax; first compound 0.4 µM) was 0.167, the relative viability (MLN4924 + Navitoclax; first compound 1.265 µM) was 0.1 and the relative viability (MLN4924 + Navitoclax; first compound 4 µM) was 0.112. For the same cell line, the relative viability (MLN4924 + Phenformin; first compound 0.04 µM) was 0.322, the relative viability (MLN4924 + Phenformin; first compound 0.1265 µM) was 0.287 and the relative viability (MLN4924 + Phenformin; first compound 0.4 µM) was 0.266. It also gave a relative viability (MLN4924 + Phenformin; first compound 1.265 µM) of 0.185 and a relative viability (MLN4924 + Phenformin; first compound 4 µM) of 0.189.
